Laboratory results as given in PMC10042146, “SARS-CoV-2 M^pro Protease Variants of Concern Display Altered Viral Substrate and Cell Host Target Galectin-8 Processing but Retain Sensitivity toward Antivirals” (ACS Central Science, 2023).
pIC50: −log10 of the molar value.

Target: T1, SARS-CoV-2 M^pro (wild type) (Severe acute respiratory syndrome coronavirus 2, UniProt P0DTD1)
T1 construct: gene rep; mature nsp5 cut from replicase polyprotein 1ab (also pp1a); homodimer; purification details only in supplement
Format: biochemical

For AVI-8053, the pIC50 was 7.72.
